Key:
bulrush = assay: Herbicidal test for paddy field; assay type: in vivo, Scrips juncoides; conditions: 500 g/ha, dropwise addition to paddy water at 1.5 leaf stage of barnyard grass; glass house 25° C., 3 weeks; rank 0-5 vs non-treated district
Description: (§1) Wagner pots, each having an area of 1/5000 are, were packed with Ube soil (alluvial soil) and planted with seeds or tubers of young rice plant, barnyard grass, bulrush, Cyperus serotinus Rottb., arrowhead and monochoria. Then, the pots were filled with water to a depth of 3 cm.
(§2) Each wettable powder of the desired Compounds (I) shown in Tables 1 to 21, 24, 25, 28 and 29 prepared in accordance with Example 2 was diluted with water containing a surfactant (0.05%) and subjected to dropwise addition treatment by using pipet so that an effective concentration of the compound (I) in each herbicide became 500 g/ha at 1.5 leaf stage of barnyard grass.
(§3) These plants were controlled in a glass house at an average temperature of 25° C. for 3 weeks, and then herbicidal effects thereof were investigated.
(§4) The herbicidal effects are evaluated according to the following 6 ranks as compared with non-treated district. (0: normal development, 1: Less damaged, 2: Slightly damaged, 3: Moderately damaged, 4: Severely damaged, 5: All killed). Incidentally, “-” in the column means not investigated.

Large crabgrass [1] = assay: Foliar spread test for upland field; assay type: in vivo, Digitaria adscendens; design: key: 0 = normal development, 5 = all killed (6 ranks vs. untreated); conditions: foliar spray, 500 ppm, 3 weeks, glass house 25° C.
Method in brief: (§5)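 Plants grown about 2 weeks at 25 °C in volcanic ash soil were sprayed with wettable powder diluted to 500 ppm in water with 0.5% surfactant. After 3 weeks at 25 °C, damage was scored 0 (normal) to 5 (all killed) against untreated plants.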

annual bluegrass [2] = assay: Soil treatment test for upland field; assay type: in vivo, Poa annua; design: key: 0 = normal development, 5 = all killed; conditions: 500 g/ha, 3 weeks, glass house 25° C.
Method in brief: (§6)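 Pre-emergence soil spray, 500 g/ha, WP formulation in water + 0.05% surfactant; alluvial soil; glasshouse, avg 25° C, 3 wk. Score 0 (normal) to 5 (all killed) vs untreated.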

livid amaranth [3] = assay: Foliar spread test for upland field; assay type: in vivo, Amaranthus lividus; design: key: 0 = normal development, 5 = all killed (6 ranks vs. untreated); conditions: foliar spray, 500 ppm, 3 weeks, glass house 25° C.
Method in brief: as §5

common lambsquarters [4] = assay: Soil treatment test for upland field; assay type: in vivo, Chenopodium album; design: key: 0 = normal development, 5 = all killed; conditions: 500 g/ha, 3 weeks, glass house 25° C.
Method in brief: as §6

morning glory [5] = assay: Foliar spread test for upland field; assay type: in vivo, Ipomoea spps.; design: key: 0 = normal development, 5 = all killed (6 ranks vs. untreated); conditions: foliar spray, 500 ppm, 3 weeks, glass house 25° C.
Method in brief: as §5

common lambsquarters [6] = assay: Foliar spread test for upland field; assay type: in vivo, Chenopodium album; design: key: 0 = normal development, 5 = all killed (6 ranks vs. untreated); conditions: foliar spray, 500 ppm, 3 weeks, glass house 25° C.
Method in brief: as §5

blackgrass [7] = assay: Foliar spread test for upland field; assay type: in vivo, Alopecurus aegualis; design: key: 0 = normal development, 5 = all killed (6 ranks vs. untreated); conditions: foliar spray, 500 ppm, 3 weeks, glass house 25° C.
Method in brief: as §5

barnyard grass [8] = assay: Soil treatment test for upland field; assay type: in vivo, Eschinochloa crusgalli; design: key: 0 = normal development, 5 = all killed; conditions: 500 g/ha, 3 weeks, glass house 25° C.
Method in brief: as §6

wheat [9] = assay: Foliar spread test for upland field; assay type: in vivo; design: key: 0 = normal development, 5 = all killed (6 ranks vs. untreated); conditions: foliar spray, 500 ppm, 3 weeks, glass house 25° C.
Method in brief: as §5

soybean = assay: Foliar spread test for upland field; assay type: in vivo; design: key: 0 = normal development, 5 = all killed (6 ranks vs. untreated); conditions: foliar spray, 500 ppm, 3 weeks, glass house 25° C.
Method in brief: as §5

solgum [10] = assay: Foliar spread test for upland field; assay type: in vivo; design: key: 0 = normal development, 5 = all killed (6 ranks vs. untreated); conditions: foliar spray, 500 ppm, 3 weeks, glass house 25° C.
Method in brief: as §5

sugar beat [11] = assay: Foliar spread test for upland field; assay type: in vivo; design: key: 0 = normal development, 5 = all killed (6 ranks vs. untreated); conditions: foliar spray, 500 ppm, 3 weeks, glass house 25° C.
Method in brief: as §5

corn [12] = assay: Foliar spread test for upland field; assay type: in vivo; design: key: 0 = normal development, 5 = all killed (6 ranks vs. untreated); conditions: foliar spray, 500 ppm, 3 weeks, glass house 25° C.
Method in brief: as §5

cotton = assay: Foliar spread test for upland field; assay type: in vivo; design: key: 0 = normal development, 5 = all killed (6 ranks vs. untreated); conditions: foliar spray, 500 ppm, 3 weeks, glass house 25° C.
Method in brief: as §5

livid amaranth [13] = assay: Soil treatment test for upland field; assay type: in vivo, Amaranthus lividus; design: key: 0 = normal development, 5 = all killed; conditions: 500 g/ha, 3 weeks, glass house 25° C.
Method in brief: as §6

green foxtail [14] = assay: Soil treatment test for upland field; assay type: in vivo, Setaria viridis; design: key: 0 = normal development, 5 = all killed; conditions: 500 g/ha, 3 weeks, glass house 25° C.
Method in brief: as §6

barnyardgrjass = assay: Foliar spread test for upland field; assay type: in vivo, Eschinochloa crusgalli; design: key: 0 = normal development, 5 = all killed (6 ranks vs. untreated); conditions: foliar spray, 500 ppm, 3 weeks, glass house 25° C.
Method in brief: as §5

barnyard grass [15] = assay: Herbicidal test for paddy field; assay type: in vivo, Eschinochloa crusgalli; conditions: 500 g/ha, dropwise addition to paddy water at 1.5 leaf stage of barnyard grass; glass house 25° C., 3 weeks; rank 0-5 vs non-treated district
Description: as §1, §2, §3, §4

green foxtail [16] = assay: Foliar spread test for upland field; assay type: in vivo, Setaria viridis; design: key: 0 = normal development, 5 = all killed (6 ranks vs. untreated); conditions: foliar spray, 500 ppm, 3 weeks, glass house 25° C.
Method in brief: as §5

blackgrass [17] = assay: Soil treatment test for upland field; assay type: in vivo, Alopecurus aegualis; design: key: 0 = normal development, 5 = all killed; conditions: 500 g/ha, 3 weeks, glass house 25° C.
Method in brief: as §6

wheat [18] = assay: Soil treatment test for upland field; assay type: in vivo; design: key: 0 = normal development, 5 = all killed; conditions: 500 g/ha, 3 weeks, glass house 25° C.
Method in brief: as §6

solgum [19] = assay: Soil treatment test for upland field; assay type: in vivo; design: key: 0 = normal development, 5 = all killed; conditions: 500 g/ha, 3 weeks, glass house 25° C.
Method in brief: as §6

corn [20] = assay: Soil treatment test for upland field; assay type: in vivo; design: key: 0 = normal development, 5 = all killed; conditions: 500 g/ha, 3 weeks, glass house 25° C.
Method in brief: as §6

annual bluegrass [21] = assay: Foliar spread test for upland field; assay type: in vivo, Poa annua; design: key: 0 = normal development, 5 = all killed (6 ranks vs. untreated); conditions: foliar spray, 500 ppm, 3 weeks, glass house 25° C.
Method in brief: as §5

velvetleaf [22] = assay: Foliar spread test for upland field; assay type: in vivo, Abutilon theophrasti; design: key: 0 = normal development, 5 = all killed (6 ranks vs. untreated); conditions: foliar spray, 500 ppm, 3 weeks, glass house 25° C.
Method in brief: as §5

morning glory [23] = assay: Soil treatment test for upland field; assay type: in vivo, Ipomoea spps.; design: key: 0 = normal development, 5 = all killed; conditions: 500 g/ha, 3 weeks, glass house 25° C.
Method in brief: as §6

Cyperus serotinus Rottb. = assay: Herbicidal test for paddy field; assay type: in vivo; conditions: 500 g/ha, dropwise addition to paddy water at 1.5 leaf stage of barnyard grass; glass house 25° C., 3 weeks; rank 0-5 vs non-treated district
Description: as §1, §2, §3, §4

Large crabgrass [24] = assay: Soil treatment test for upland field; assay type: in vivo, Digitaria adscendens; design: key: 0 = normal development, 5 = all killed; conditions: 500 g/ha, 3 weeks, glass house 25° C.
Method in brief: as §6

velvetleaf [25] = assay: Soil treatment test for upland field; assay type: in vivo, Abutilon theophrasti; design: key: 0 = normal development, 5 = all killed; conditions: 500 g/ha, 3 weeks, glass house 25° C.
Method in brief: as §6

sugar beat [26] = assay: Soil treatment test for upland field; assay type: in vivo; design: key: 0 = normal development, 5 = all killed; conditions: 500 g/ha, 3 weeks, glass house 25° C.
Method in brief: as §6

SMILES | Effects Bulrush (bulrush) | Effects Large crabgrass (Large crabgrass [1]) | Effects Annual bluegrass (annual bluegrass [2]) | Effects Livid amaranth (livid amaranth [3]) | Effects Common lambsquarters (common lambsquarters [4]) | Effects Morning glory (morning glory [5]) | Effects Common lambsquarters (common lambsquarters [6]) | Effects Blackgrass (blackgrass [7]) | Effects Barnyardgrass (barnyard grass [8]) | Effects Wheat (wheat [9]) | Effects Soybean (soybean) | Effects Solgum (solgum [10]) | Effects Sugar beat (sugar beat [11]) | Effects Corn (corn [12]) | Effects Sotton (cotton) | Effects Livid amaranth (livid amaranth [13]) | Effects Green foxtail (green foxtail [14]) | Effects Barnyardgrass (barnyardgrjass) | Effects Barnyardgrass (barnyard grass [15]) | Effects Green foxtail (green foxtail [16]) | other results
FC(F)(F)c1cccc(C=Cc2nc3ccccc3o2)c1 [I-c-1] | 3 | 3 | 5 | 4 | 5 | 5 | 3 | 1 | 5 | 1 | 5 | 1 | 3 | 2 | 2 | 5 | 5 | 1 | 3 | 3 | Effects Blackgrass (blackgrass [17]): 5; Effects Wheat (wheat [18]): 0; Effects Solgum (solgum [19]): 1; Effects Corn (corn [20]): 1; Effects Annual bluegrass (annual bluegrass [21]): 1; Effects Velvetleaf (velvetleaf [22]): 2; Effects Morning glory (morning glory [23]): 1; Effects Cyperus serotinus Rottb. (Cyperus serotinus Rottb.): 3; Effects Large crabgrass (Large crabgrass [24]): 5
CCC(=Cc1cccc(C(F)(F)F)c1)c1nc2cc(F)ccc2o1 [I-c-42] | 5 | 4 | 5 | 5 | 5 | 4 | 5 | 3 | 5 | 2 | 5 | 2 | 4 | 3 | 3 | 5 | 5 | 2 | 5 | 4 | Effects Velvetleaf (velvetleaf [25]): 5; Effects Blackgrass (blackgrass [17]): 5; Effects Wheat (wheat [18]): 0; Effects Solgum (solgum [19]): 5; Effects Sugar beat (sugar beat [26]): 5; Effects Corn (corn [20]): 1; Effects Annual bluegrass (annual bluegrass [21]): 3; Effects Velvetleaf (velvetleaf [22]): 3; Effects Morning glory (morning glory [23]): 3; Effects Large crabgrass (Large crabgrass [24]): 5
CCC(=Cc1cccc(C(F)(F)F)c1)c1nc2cc(C)ccc2o1 [I-c-76] | 3 | 4 | 5 | 5 | 5 | 5 | 4 | 2 | 4 | 2 | 5 | 2 | 4 | 2 | 3 | 5 | 5 | 2 | 4 | 4 | Effects Velvetleaf (velvetleaf [25]): 5; Effects Blackgrass (blackgrass [17]): 5; Effects Wheat (wheat [18]): 0; Effects Solgum (solgum [19]): 3; Effects Sugar beat (sugar beat [26]): 0; Effects Corn (corn [20]): 1; Effects Annual bluegrass (annual bluegrass [21]): 2; Effects Velvetleaf (velvetleaf [22]): 3; Effects Morning glory (morning glory [23]): 1; Effects Large crabgrass (Large crabgrass [24]): 5

From patent US7402548B2, “Benzoxazole compounds, process for producing the same and herbicides” (Kyoyu Agri Co., Ltd., priority 2000, dated 2008)
